Reference: PMC6425606 (Journal for Immunotherapy of Cancer, 2019)
Read-outs that look alike come from different tables or passages of the source. Blank lines part the entries; values can stand above or below the compound they belong to.

Key:
[1] = Epacadostat plasma pharmacokinetics (LC-MS/MS, noncompartmental analysis); assay type: in vivo, human
Method: SAS® software, version 9.4 (SAS Institute Inc., Cary, NC) was used to generate all tables, graphs, and statistical analyses. […] Descriptive statistics were used to present summaries of continuous and categorical variables. Survival data (OS, PFS) were analyzed using the nonparametric Kaplan-Meier method.
Thirty-six patients were evaluable for pharmacokinetic analyses. […] Steady-state pharmacokinetic observations (Cycle 1, Day 10) are summarized in Additional file 1: Table S3.

[2] = design: method as in PMID 28053021; settings: epacadostat monotherapy 300 mg BID, patients with advanced malignancies; cited from earlier work
metastatic melanoma = test system: metastatic melanoma; design: method as in PMID 20525992, PMID 27622997, PMID 26027431; settings: ipilimumab monotherapy, previously treated patients; cited from earlier work
untreated melanoma = settings: human, in vivo; cited from earlier work
[3] = epacadostat 25 mg BID (n=10), steady state Cycle 1 Day 10
[4] = epacadostat 50 mg BID continuous (n=13), steady state Cycle 1 Day 10
[5] = epacadostat 50 mg BID intermittent (n=7), steady state Cycle 1 Day 10
[6] = epacadostat 300 mg BID (n=6), steady state Cycle 1 Day 10

- Increase of pharmacokinetic exposures (Cmax, AUC0–12h) with dose ([1]; between 25 mg BID and 300 mg BID): dose-proportional
- CL/F, geometric mean [1, 3]: 61.3 L/h
- CL/F, mean ± SD [1, 3]: 68.9 ± 32.1 L/h
- Cmin, mean ± SD [1, 3]: 0.03 ± 0.03 µM
- CL/F, geometric mean [1, 4]: 64.2 L/h
- CL/F, mean ± SD [1, 4]: 69.7 ± 29.8 L/h
- Cmin, mean ± SD [1, 4]: 0.06 ± 0.05 µM
- tmax, median [1, 4]: 2.0 h
- Cmax ([1]; epacadostat 50 mg BID continuous (n=13), steady state Cycle 1 Day 10, read-out: Cmax, geometric mean): 0.4 µM
- Cmax ([1]; epacadostat 50 mg BID continuous (n=13), steady state Cycle 1 Day 10, read-out: Cmax, mean ± SD): 0.5 ± 0.2 µM
- CL/F, geometric mean [1, 5]: 54.4 L/h
- CL/F, mean ± SD [1, 5]: 57.6 ± 21.7 L/h
- Cmin, mean ± SD [1, 5]: 0.06 ± 0.04 µM
- Cmax ([1]; epacadostat 50 mg BID intermittent (n=7), steady state Cycle 1 Day 10, read-out: Cmax, geometric mean): 0.5 µM
- CL/F, geometric mean [1, 6]: 74.8 L/h
- CL/F, mean ± SD [1, 6]: 77.6 ± 22.2 L/h
- Cmin, geometric mean [1, 6]: 0.2 µM
- Cmin, mean ± SD [1, 6]: 0.3 ± 0.2 µM
- AUC(0-t) ([1]; human, plasma, oral, 25 mg, epacadostat 25 mg BID (n=10), steady state Cycle 1 Day 10, read-out: AUC0–12h, geometric mean): 900 nM·h
- AUC(0-t) ([1]; human, plasma, oral, 25 mg, epacadostat 25 mg BID (n=10), steady state Cycle 1 Day 10, read-out: AUC0–12h, mean ± SD): 1100 ± 700 nM·h
- half-life ([1]; human, plasma, oral, 25 mg, epacadostat 25 mg BID (n=10), steady state Cycle 1 Day 10, read-out: t½, geometric mean (converted)): 7.4 h
- half-life ([1]; human, plasma, oral, 25 mg, epacadostat 25 mg BID (n=10), steady state Cycle 1 Day 10, read-out: t½, mean ± SD (converted)): 9.1 ± 6.1 h
- AUC(0-t) ([1]; human, plasma, oral, 50 mg, epacadostat 50 mg BID continuous (n=13), steady state Cycle 1 Day 10, read-out: AUC0–12h, geometric mean): 1800 nM·h
- AUC(0-t) ([1]; human, plasma, oral, 50 mg, epacadostat 50 mg BID continuous (n=13), steady state Cycle 1 Day 10, read-out: AUC0–12h, mean ± SD): 1900 ± 800 nM·h
- half-life ([1]; human, plasma, oral, 50 mg, epacadostat 50 mg BID continuous (n=13), steady state Cycle 1 Day 10, read-out: t½, geometric mean (converted)): 5.9 h
- half-life ([1]; human, plasma, oral, 50 mg, epacadostat 50 mg BID continuous (n=13), steady state Cycle 1 Day 10, read-out: t½, mean ± SD (converted)): 7.1 ± 5.5 h
- AUC(0-t) ([1]; human, plasma, oral, 50 mg, epacadostat 50 mg BID intermittent (n=7), steady state Cycle 1 Day 10, read-out: AUC0–12h, geometric mean): 2100 nM·h
- AUC(0-t) ([1]; human, plasma, oral, 50 mg, epacadostat 50 mg BID intermittent (n=7), steady state Cycle 1 Day 10, read-out: AUC0–12h, mean ± SD): 2200 ± 700 nM·h
- half-life ([1]; human, plasma, oral, 50 mg, epacadostat 50 mg BID intermittent (n=7), steady state Cycle 1 Day 10, read-out: t½, geometric mean (converted)): 4.5 h
- half-life ([1]; human, plasma, oral, 50 mg, epacadostat 50 mg BID intermittent (n=7), steady state Cycle 1 Day 10, read-out: t½, mean ± SD (converted)): 5.1 ± 2.9 h
- AUC(0-t) ([1]; human, plasma, oral, 300 mg, epacadostat 300 mg BID (n=6), steady state Cycle 1 Day 10, read-out: AUC0–12h, geometric mean): 9200 nM·h
- AUC(0-t) ([1]; human, plasma, oral, 300 mg, epacadostat 300 mg BID (n=6), steady state Cycle 1 Day 10, read-out: AUC0–12h, mean ± SD): 9500 ± 3000 nM·h
- half-life ([1]; human, plasma, oral, 300 mg, epacadostat 300 mg BID (n=6), steady state Cycle 1 Day 10, read-out: t½, geometric mean (converted)): 5.4 h
- half-life ([1]; human, plasma, oral, 300 mg, epacadostat 300 mg BID (n=6), steady state Cycle 1 Day 10, read-out: t½, mean ± SD (converted)): 6.2 ± 3.5 h
- half-life ([1]; human, plasma, po, repeat oral doses of 25 mg BID, 50 mg BID, 50 mg BID intermittent, 300 mg BID, read-out: Mean terminal elimination half-life (t½)): 5 to 9 h
- Tmax ([1]; human, plasma, repeat oral doses of 25 mg BID, 50 mg BID, 50 mg BID intermittent, 300 mg BID, read-out: Median time of maximum observed concentration (tmax)): ~2 h
Compound: NS(=O)(=O)NCCNc1nonc1C(=NO)Nc1ccc(F)c(Br)c1 [epacadostat]
- Geometric mean AUC [2]: 9800 nM·h

Compound: ipilimumab: anti-CTLA-4 antibody, immune checkpoint inhibitor
- Overall response rate (metastatic melanoma): 11%
- Patients with grade 3/4 treatment-emergent AEs (untreated melanoma): 56%
- Rate of irAEs (grade 3/4) (untreated melanoma): 19%
